These results are taken from ChEMBL document CHEMBL1125069, “Synthesis and antitumor activity of 2-beta-D-ribofuranosyloxazole-4-carboxamide (oxazofurin)” (J Med Chem, 1990).

The structures appear in SMILES notation.

For assay [1], the system named is B16. Put plainly: In vitro inhibitory activity against B16 murine melanoma cells. The format is functional, cell-based. The following applies: Mus musculus.
The subject of assay [2] is HL-60. Put plainly: In vitro inhibitory activity against HL-60 human promyelocytic leukemia cells until a maximum concentration of 4*(10e-3) M; a = inactive until a maximum tested concentration of 4*(10e-3) M. The format is functional, cell-based.
The test system of assay [3] is L1210. As to the kind of experiment: In vitro inhibitory activity against L1210 murine lymphocytic leukemia cells; a = inactive until a maximum tested concentration of 4*(10e-3) M. The format is functional, cell-based, Mus musculus.
Assay [4] concerns P388. Put plainly: In vitro inhibitory activity against P388 murine lymphocytic leukemia cells; a = inactive until a maximum tested concentration of 4*(10e-3) M. The format is functional, cell-based, Mus musculus.
Assay [5] has as its system HL-60. Put plainly: In vitro inhibitory activity against HL-60 human promyelocytic leukemia cells. In kind it is functional, cell-based.
For assay [6], the system named is L1210. As to the kind of experiment: In vitro inhibitory activity against L1210 murine lymphocytic leukemia cells. In kind it is functional, cell-based. The following applies: Mus musculus.
Assay [7] concerns P388. As to the kind of experiment: In vitro inhibitory activity against P388 murine lymphocytic leukemia cells. Particulars: Mus musculus; call rule not given here. In kind it is functional, cell-based.
Assay [8] has as its system B16. As to the kind of experiment: In vitro inhibitory activity against B16 murine melanoma cells; b = inactive until a maximum tested concentration of […]. The format is functional, cell-based, Mus musculus.
Assay [9] has as its system HL-60. Put plainly: In vitro inhibitory activity against HL-60 human promyelocytic leukemia cells; b = inactive until a maximum tested concentration of […]. The format is functional, cell-based.
The test system of assay [10] is L1210. Put plainly: In vitro inhibitory activity against L1210 murine lymphocytic leukemia cells; b = inactive until a maximum tested concentration of […]. In kind it is functional, cell-based, Mus musculus.
Assay [11] has as its system P388. Put plainly: In vitro inhibitory activity against P388 murine lymphocytic leukemia cells; b = inactive until a maximum tested concentration of 2.5(10e-4) M.

Usually IC50 stands for the concentration at which inhibition is half-maximal. High values mean lower potency, low ones higher potency. `NC(=O)c1coc([C@@H]2O[C@H](CO)[C@@H](O)[C@H]2O)n1`: the IC50 is 3020 µM in the assay with B16 [1], “Inactive until max test conc 4x10^-3M” in the assay on HL-60 [2], “Inactive until max test conc 4x10^-3M” with L1210 [3] and “Inactive until max test conc 4x10^-3M” in the assay on P388 [4].

As to `NC(=O)c1csc([C@@H]2O[C@H](CO)[C@@H](O)[C@H]2O)n1` [TIAZOFURIN], the IC50 stood at 16.2 µM in the assay with B16 [1], 6.1 µM in the assay with HL-60 [5], 6.2 µM in the assay with L1210 [6] and 16.7 µM in the assay with P388 [7].

For the compound `NC(=O)c1nc(-c2ccc(CO)o2)oc1N`, the IC50 result in the assay with B16 [8], with HL-60 [9], with L1210 [10] and in the assay on P388 [11] was “Inactive until max test conc 2.5x10^-4M” in each case.

On to `NC(=O)c1coc(-c2ccc(CO)o2)n1`, for which the IC50 result with B16 [8], in the assay with HL-60 [9], in the assay with L1210 [10] and in the assay with P388 [11] was “Inactive until max test conc 2.5x10^-4M” throughout.
